What is called melting point is the temperature, or range, at which the solid turns liquid.

Here are results for 23 molecules from patent US7112590B2, “Thrombin inhibitors” (LEK Pharmaceuticals d.d., priority 2000, dated 2006).

Structures are written as SMILES.

`Cl.Cl.Nc1ncc2c(n1)CCC(NC(=O)[C@@H]1CCCN1C(=O)[C@H](N)Cc1ccccc1)C2` (some centres unmarked) showed a melting point of 205 to 208 °C.
Under `Nc1nc2ccc(NC(=O)[C@@H]3CCCN3C(=O)[C@@H](Cc3ccccc3)NS(=O)(=O)Cc3ccccc3)cc2s1` [Example 38, (2S)-N-(2-Amino-1,3-benzothiazol-6-yl)-1-{(2R)-2-[(benzylsulfonyl)amino]-3-phenylpropanoyl}-2-pyrrolidinecarboxamide] stands 130 to 133 °C; under `CC(C)(C)OC(=O)N[C@@H](C(=O)N1CCC[C@H]1C(=O)NCC1CCc2nc(N)ncc2C1)C(c1ccccc1)c1ccccc1` (stereo partly drawn) [Example 67, tert-Butyl (1R)-2-[(2S)-2-({[(2-amino-5,6,7,8-tetrahydro-6-quinazolinyl)methyl]amino}carbonyl)pyrrolidinyl]-1-benzhydryl-2-oxoethylcarbamate], 127 to 130 °C.
Next, `CC(C)(C)OC(=O)N[C@H](C(=O)N1CCC[C@H]1C(=O)NC1CCc2n[nH]cc2C1)C(c1ccccc1)c1ccccc1` (stereo partly drawn) [Example 15, tert-Butyl (1S)-1-benzhydryl-2-oxo-2-{(2S)-2-[(4,5,6,7-tetrahydro-2H-indazol-5-ylamino)carbonyl]pyrrolidinyl}ethylcarbamate]: 127 to 130 °C.
`CC(C)(C)OC(=O)N[C@H](Cc1ccc(Cl)c(Cl)c1)C(=O)N1CCC[C@H]1C(=O)NC1CCc2n[nH]cc2C1` (stereo partly drawn) [Example 16, tert-Butyl (1R)-1-(3,4dichlorobenzyl)-2-oxo-2-{(2S)-2-[(4,5,6,7-tetrahydro-2H-indazol-5-ylamino)carbonyl]pyrrolidinyl}ethylcarbamate] gave a melting point of 116 to 119 °C.
`Cl.Cl.Nc1ncc2c(n1)CCC(CNC(=O)[C@@H]1CCCN1C(=O)[C@H](N)Cc1ccc(Cl)c(Cl)c1)C2` (some centres unmarked) had a melting point of 169 to 172 °C.
Next, `Nc1nc2c(s1)CC(NC(=O)CNC(=O)[C@@H](Cc1ccccc1)NS(=O)(=O)Cc1ccccc1)CC2` (stereo partly drawn) [Example 31, (2R)-N-{2-[(2-Amino-4,5,6,7-tetrahydro-1,3-benzothiazol-6-yl)amino]-2-oxoethyl}-2-[(benzylsulfonyl)amino]3-phenylpropanamide]: 119 to 122 °C.
Next, `CC(C)(C)OC(=O)N[C@H](Cc1ccc(Cl)c(Cl)c1)C(=O)N1CCC[C@H]1C(=O)NC1CCc2nc(N)ncc2C1` (stereo partly drawn) [Example 14, tert-Butyl (1R)-2-((2S)-2-{[(2-amino-5,6,7,8-tetrahydro-6-quinazolinyl)amino]carbonyl}pyrrolidinyl)-1-(3,4-dichlorobenzyl)-2-oxoethylcarbamate]: 114 to 117 °C; `CC(C)(C)OC(=O)N[C@@H](C(=O)N1CCC[C@H]1C(=O)NC1CCc2n[nH]cc2C1)C(c1ccccc1)c1ccccc1` (stereo partly drawn) [Example 55, tert-Butyl (1R)-1-benzhydryl-2-oxo-2-{(2S)-2-[(4,5,6,7-tetrahydro-2H-indazol-5-ylamino)carbonyl]pyrrolidinyl}ethylcarbamate]: 119 to 122 °C; `Nc1nc2c(s1)CC(NC(=O)[C@@H]1CCCN1C(=O)[C@@H](Cc1ccccc1)NS(=O)(=O)c1ccc3ccccc3c1)CC2` (stereo partly drawn) [Example 30, (2S)-N-(2-Amino-4,5,6,7-tetrahydro-1,3-benzothiazol-6-yl)-1-{(2R)-2-[(2-naphthylsulfonyl)amino]-3-phenylpropanoyl}-2-pyrrolidinecarboxamide]: 128 to 131 °C.
Under `CC(C)(C)OC(=O)N[C@H](Cc1ccc(Cl)c(Cl)c1)C(=O)N1CCC[C@H]1C(=O)NCC1CCc2n[nH]cc2C1` (stereo partly drawn) [Example 59, tert-Butyl (1R)-1-(3,4-dichlorobenzyl)-2-oxo-2-((2S)-2-{[(4,5,6,7-tetrahydro-2H-indazol-5-ylmethyl)amino]carbonyl}pyrrolidinyl)ethylcarbamate] stands 100 to 103 °C; under `CC(C)(C)OC(=O)N[C@H](C(=O)N1CCC[C@H]1C(=O)NC1CCc2nc(N)sc2C1)C(c1ccccc1)c1ccccc1` (stereo partly drawn) [Example 35, tert-Butyl (1S)-2-((2S)-2-{[(2-amino-4,5,6,7-tetrahydro-1,3-benzothiazol-6-yl)amino]carbonyl}pyrrolidinyl)-1-benzhydryl-2-oxoethylcarbamate], 127 to 130 °C; under `Cl.Cl.Nc1nc2c(s1)CC(NC(=O)[C@@H]1CCCN1C(=O)[C@@H](CC1CCCCC1)NCC(=O)O)CC2` (some centres unmarked), 180 to 182 °C.
`Cl.Cl.N[C@@H](C(=O)N1CCC[C@H]1C(=O)NC1CCc2n[nH]cc2C1)C(c1ccccc1)c1ccccc1` (some centres unmarked) yielded a melting point of 190 to 193 °C.
As to `CC(C)(C)OC(=O)N[C@H](Cc1ccccc1)C(=O)N1CCC[C@H]1C(=O)NC1CCc2nc(N)ncc2C1` (some centres unmarked) [Example 7], the melting point was 110 to 113 °C.
`Nc1ncc2c(n1)CCC(NC(=O)[C@@H]1CCCN1C(=O)[C@@H](CC1CCCCC1)NS(=O)(=O)Cc1ccccc1)C2` (stereo partly drawn) [Example 21, (2S)-N-(2-Amino-5,6,7,8-tetrahydro-6-quinazolinyl)-1-{(2R)-2-[(benzylsulfonyl)amino]-3-cyclohexylpropanoyl}-2-pyrrolidinecarboxamide] registered a melting point of 114 to 117 °C.
For the molecule `Cl.N[C@H](Cc1ccc(Cl)c(Cl)c1)C(=O)N1CCC[C@H]1C(=O)NCC1CCc2n[nH]cc2C1` (some centres unmarked), the melting point lay within 145 to 148 °C.
Next, `Nc1nc2c(s1)CC(CNC(=O)[C@@H]1CCCN1C(=O)[C@@H](CC1CCCCC1)NS(=O)(=O)Cc1ccccc1)CC2` (stereo partly drawn) [Example 69, (2S)-N-[(2-Amino-4,5,6,7-tetrahydro-1,3-benzothiazol-6-yl)methyl]-1-{(2R)-2-[(benzylsulfonyl)amino]-3-cyclohexylpropanoyl}-2-pyrrolidinecarboxamide]: 203 to 205 °C; `Nc1nc2c(s1)CC(NC(=O)[C@@H]1CCCN1C(=O)[C@@H](CC1CCCCC1)NS(=O)(=O)Cc1ccccc1)CC2` (stereo partly drawn) [Example 28, (2S)-N-(2-Amino-4,5,6,7-tetrahydro-1,3-benzothiazol-6-yl)-1-{(2R)-2-[(benzylsulfonyl)amino]-3-cyclohexylpropanoyl}-2-pyrrolidinecarboxamide]: 127 to 130 °C.
Under `Nc1ncnc2ccc(NC(=O)[C@@H]3CCCN3C(=O)CNC(c3ccccc3)(c3ccccc3)c3ccccc3)cc12` [Example 42, (2S)-N-(4-amino-6-quinazolinyl)-1-{2-[(triphenylmethyl)amino]acetyl}-2-pyrrolidinecarboxamide] stands above 250 °C; under `Cl.Cl.Nc1ncc2c(n1)CCC(NC(=O)[C@@H]1CCCN1C(=O)[C@@H](N)C(c1ccccc1)c1ccccc1)C2` (some centres unmarked), 212 to 215 °C.
Next, `Nc1ncc2c(n1)CCC(NC(=O)[C@@H]1CCCN1C(=O)[C@@H](Cc1ccccc1)NS(=O)(=O)Cc1ccccc1)C2` (stereo partly drawn) [Example 6, (2S)-N-(2-Amino-5,6,7,8-tetrahydro-6-quinazolinyl)-1-{(2R)-2-[(benzylsulfonyl)amino]-3-phenylpropanoyl}-2-pyrrolidinecarboxamide]: 117 to 120 °C.
Consider `Nc1ncc2c(n1)CCC(CNC(=O)[C@@H]1CCCN1C(=O)[C@@H](Cc1ccccc1)NS(=O)(=O)Cc1ccccc1)C2` (stereo partly drawn) [Example 12, (2S)-N-[(2-Amino-5,6,7,8-tetrahydro-6-quinazolinyl)methyl]-1-{(2R)-2-[(benzylsulfonyl)amino]-3-phenylpropanoyl}-2-pyrrolidinecarboxamide], for which the melting point lay within 118 to 121 °C.
